{"source": "patent US8697722B2", "about": "(SRI International, priority 2007, dated 2014)", "key": {"rat α3β4 receptors": {"molecular_target": "T1, rat α3β4 receptors (Rattus norvegicus, UniProt P04757+P12392)", "T1 construct": "expressed in transfected cells; host or cells: HEK cells (KXα3β4R2)", "assay": "[3H]epibatidine competition binding on membranes of HEK cells transfected with rat α3β4 receptors"}, "rat α4β2 receptors": {"molecular_target": "T2, rat α4β2 receptors (Rattus norvegicus, UniProt P09483+P12390)", "T2 construct": "expressed in transfected cells; host or cells: HEK cells (KXα4β2R2)", "assay": "[3H]epibatidine competition binding on membranes of HEK cells transfected with rat α4β2 receptors"}, "[1]": {"settings": "competition with 0.3 nM [3H]epibatidine, KXα3β4R2 HEK cell membranes, 3 h room temperature, read-out: Binding affinities α3β4 (Ki)"}, "[2]": {"settings": "competition with 0.3 nM [3H]epibatidine, KXα4β2R2 HEK cell membranes, 3 h room temperature, read-out: Binding affinities α4β2 (Ki)"}, "[3]": {"settings": "read-out: Binding affinities α4β2 (Ki)"}, "[4]": {"settings": "read-out: Binding affinities α3β4 (Ki)"}}, "note": "pKi: −log10 of the molar value. Like-named read-outs stand apart in the source and are kept apart here.", "data": [{"smiles": "O=c1cccc2n1C[C@@H]1CNC[C@H]2C1", "note": "[Cytisine, reference compound]", "values": [{"measurement": "pKi", "setting": "rat α3β4 receptors; [1]", "result": 6.69}, {"measurement": "pKi", "setting": "rat α4β2 receptors; [2]", "result": 8.82}]}, {"smiles": "CN1C2CCC1CC(N1C(=O)Cc3ccccc31)C2", "note": "(stereo not shown) [SR 16583]", "values": [{"measurement": "pKi", "setting": "rat α3β4 receptors; [1]", "result": 5.55}, {"measurement": "pKi", "setting": "rat α4β2 receptors", "result": "< 5.00"}]}, {"smiles": "CN1C2CCCC1CC(N1C(=O)Cc3ccccc31)C2", "note": "(stereo not shown) [SR 16584]", "values": [{"measurement": "pKi", "setting": "rat α4β2 receptors", "result": "< 5.00"}]}, {"smiles": "O=C1Cc2ccccc2N1C1CC2CCCC(C1)N2", "note": "(stereo not shown) [SR 16832]", "values": [{"measurement": "pKi", "setting": "rat α3β4 receptors; [1]", "result": 6.38}, {"measurement": "pKi", "setting": "rat α4β2 receptors", "result": "< 5.00"}]}, {"smiles": "C1=C(c2cccnc2)CC2CC1CN2Cc1ccccc1", "note": "(stereo not shown) [SR 17004]", "values": [{"measurement": "pKi", "setting": "rat α3β4 receptors", "result": 6.71}, {"measurement": "pKi", "setting": "rat α4β2 receptors; [3]", "result": 8.71}]}, {"smiles": "CN1C2CCCC1CC(Nc1ccccc1)C2", "note": "(stereo not shown) [SR 17011]", "values": [{"measurement": "pKi", "setting": "rat α3β4 receptors; [4]", "result": 6.08}, {"measurement": "pKi", "setting": "rat α4β2 receptors; [3]", "result": "< 5.00"}]}, {"smiles": "C1=C(c2cnc3ccccc3c2)CC2CC1N(Cc1ccccc1)C2", "note": "(stereo not shown) [SR 17015]", "values": [{"measurement": "pKi", "setting": "rat α3β4 receptors; [1]", "result": 5.61}, {"measurement": "pKi", "setting": "rat α4β2 receptors; [2]", "result": 7.54}]}, {"smiles": "CCOC(=O)N1C2C=C(c3cccnc3)CC1CCC2", "note": "(stereo not shown) [SR 17021]", "values": [{"measurement": "pKi", "setting": "rat α3β4 receptors; [4]", "result": "< 5.00"}, {"measurement": "pKi", "setting": "rat α4β2 receptors; [3]", "result": "< 5.00"}]}, {"smiles": "CN1C2C=C(c3cccnc3)CC1CCC2", "note": "(stereo not shown) [SR 17026]", "values": [{"measurement": "pKi", "setting": "rat α3β4 receptors; [4]", "result": 6.62}, {"measurement": "pKi", "setting": "rat α4β2 receptors", "result": 8.00}]}, {"smiles": "CN1C2C=C(c3cnc4ccccc4c3)CC1CCC2", "note": "(stereo not shown) [SR 17027]", "values": [{"measurement": "pKi", "setting": "rat α3β4 receptors; [1]", "result": 5.58}, {"measurement": "pKi", "setting": "rat α4β2 receptors; [2]", "result": 6.37}]}]}
